Laboratory results: ChEMBL document CHEMBL1131720, “Phosphofurylalanine, a stable analog of phosphohistidine” (Bioorg Med Chem Lett, 1999)

Experiments:
[1] = Kinetic resolution using papain, 170 U.mL e-1 at 24 hr expressed as percent ee unreacted; assay type: ADME
[2] = organism: Equus caballus; assay: Kinetic resolution using horse liver esterase, 3 U.mL e-1 at 48 hr expressed as percent ee unreacted; assay type: ADME, organism-based; conditions: in vivo
[3] = organism: Sus scrofa; assay: Kinetic resolution using pig liver esterase, 240 U.mL e-1 at 48 hr expressed as percent ee unreacted; assay type: ADME, organism-based; conditions: in vivo
[4] = Kinetic resolution using alpha-chymotrypsin, 375 U.mL e-1 at 72 hr expressed as percent ee unreacted; assay type: ADME

Work on `CCOP(=O)(OCC)c1coc(C[C@H](NC(=O)OC(C)(C)C)C(=O)O)c1` yielded an Unreacted drug [1] of 75%, an Unreacted drug [2] of 50% and an Unreacted drug [3] of 60%.
`CCOC(=O)[C@@H](Cc1cc(P(=O)(OCC)OCC)co1)NC(=O)OC(C)(C)C` gave an Unreacted drug [1] of over 96%, an Unreacted drug [2] of 60% and an Unreacted drug [4] of 0%. It also gave an Unreacted drug [3] of 70%.
